Data from patent US9884842B2, “Combretastatin analogs” (The Board of Trustees of the University of Arkansas, priority 2013, dated 2018).

Key:
HT29 = test: NCI growth inhibition and cytotoxicity screen, Colon Cancer panel; conditions: Homo sapiens; for GI50: HT-29; for CC50: HT-29, read-out: LC50
HOP-92 = test: NCI growth inhibition and cytotoxicity screen, Lung Cancer panel; conditions: Homo sapiens; for GI50: HOP-92; for CC50: HOP-92, read-out: LC50
BT-549 = test: NCI growth inhibition and cytotoxicity screen, Breast Cancer panel; conditions: Homo sapiens; for GI50: BT-549; for CC50: BT-549, read-out: LC50
OVCAR-8 = test: NCI growth inhibition and cytotoxicity screen, Ovarian Cancer panel; conditions: Homo sapiens; for GI50: OVCAR-8; for CC50: OVCAR-8, read-out: LC50
DU-145 = test: NCI growth inhibition and cytotoxicity screen, Prostate Cancer panel; conditions: Homo sapiens; for GI50: DU-145; for CC50: DU-145, read-out: LC50
UO-31 = test: NCI growth inhibition and cytotoxicity screen, Renal Cancer panel; conditions: Homo sapiens; for GI50: UO-31; for CC50: UO-31, read-out: LC50
COLO 205 = test: NCI growth inhibition and cytotoxicity screen, Colon Cancer panel; conditions: Homo sapiens; for GI50: COLO 205; for CC50: COLO 205, read-out: LC50
A498 = test: NCI growth inhibition and cytotoxicity screen, Renal Cancer panel; conditions: Homo sapiens; for GI50: A498; for CC50: A498, read-out: LC50
SR = test: NCI growth inhibition and cytotoxicity screen, Leukemia panel; conditions: Homo sapiens; for CC50: read-out: LC50
RPMI-8226 = test: as above; conditions: Homo sapiens; for GI50: RPMI-8226; for CC50: RPMI-8226, read-out: LC50
HCT-116 = test: NCI growth inhibition and cytotoxicity screen, Colon Cancer panel; conditions: Homo sapiens; for GI50: HCT-116; for CC50: HCT-116, read-out: LC50
SK-MEL-28 = test: NCI growth inhibition and cytotoxicity screen, Melanoma panel; conditions: Homo sapiens; for GI50: SK-MEL-28; for CC50: SK-MEL-28, read-out: LC50
T-47D = test: NCI growth inhibition and cytotoxicity screen, Breast Cancer panel; conditions: Homo sapiens, T47D; for CC50: read-out: LC50
OVCAR-3 = test: cells; conditions: Homo sapiens; for GI50: OVCAR-3; for CC50: OVCAR-3, read-out: LC50
UACC-62 = test: NCI growth inhibition and cytotoxicity screen, Melanoma panel; conditions: Homo sapiens; for GI50: UACC-62; for CC50: UACC-62, read-out: LC50
M14 = test: as above; conditions: Homo sapiens; for GI50: M14; for CC50: M14, read-out: LC50
SF-268 = test: NCI growth inhibition and cytotoxicity screen, CNS Cancer panel; conditions: Homo sapiens; for GI50: SF-268; for CC50: SF-268, read-out: LC50
HL-60(TB) = test: cells; conditions: Homo sapiens; for GI50: HL-60; for CC50: HL-60, read-out: LC50
HOP-62 = test: NCI growth inhibition and cytotoxicity screen, Lung Cancer panel; conditions: Homo sapiens; for GI50: HOP-62; for CC50: HOP-62, read-out: LC50
MDA-MB-435 = test: NCI growth inhibition and cytotoxicity screen, Melanoma panel; conditions: Homo sapiens; for GI50: MDA-MB-435; for CC50: MDA-MB-435, read-out: LC50
A549/ATCC = test: NCI growth inhibition and cytotoxicity screen, Lung Cancer panel; conditions: Homo sapiens; for GI50: A549; for CC50: A549, read-out: LC50
NCI/ADR-RES = test: NCI growth inhibition and cytotoxicity screen, Ovarian Cancer panel; conditions: Homo sapiens; for CC50: read-out: LC50
RXF 393 = test: NCI growth inhibition and cytotoxicity screen, Renal Cancer panel; conditions: Homo sapiens; for GI50: RXF 393; for CC50: RXF 393, read-out: LC50
NCI-H460 = test: NCI growth inhibition and cytotoxicity screen, Lung Cancer panel; conditions: Homo sapiens; for GI50: NCI-H460; for CC50: NCI-H460, read-out: LC50
TK-10 = test: NCI growth inhibition and cytotoxicity screen, Renal Cancer panel; conditions: Homo sapiens; for GI50: TK-10; for CC50: TK-10, read-out: LC50
786-0 = test: as above; conditions: Homo sapiens; for GI50: 786-0; for CC50: 786-0, read-out: LC50
IGROV1 = test: NCI growth inhibition and cytotoxicity screen, Ovarian Cancer panel; conditions: Homo sapiens; for GI50: IGROV-1; for CC50: IGROV-1, read-out: LC50

COc1cc(OC)cc(/C(C#N)=C/c2c[nH]c3ccccc23)c1 [Formula (I)(b)]
GI50 (HT29): 38.4 nM
CC50 (HT29): > 100000 nM
GI50 (HOP-92): 68.4 nM
CC50 (HOP-92): > 100000 nM
GI50 (BT-549): > 100 nM
CC50 (BT-549): > 100000 nM
GI50 (OVCAR-8): > 100 nM
CC50 (OVCAR-8): > 100000 nM
GI50 (DU-145): > 100 nM
CC50 (DU-145): > 100000 nM
GI50 (UO-31): > 100 nM
CC50 (UO-31): > 100000 nM
GI50 (COLO 205): 47.7 nM
CC50 (COLO 205): 15200 nM
GI50 (A498): 35.3 nM
CC50 (A498): > 100000 nM
GI50 (SR): 33.4 nM
CC50 (SR): > 100000 nM
GI50 (RPMI-8226): 65.5 nM
CC50 (RPMI-8226): > 100000 nM
GI50 (HCT-116): 42.5 nM
CC50 (HCT-116): > 100000 nM
GI50 (SK-MEL-28): 81.1 nM
CC50 (SK-MEL-28): > 100000 nM
GI50 (T-47D): > 100 nM
CC50 (T-47D): > 100000 nM
GI50 (OVCAR-3): 31.2 nM
CC50 (OVCAR-3): > 100000 nM
GI50 (UACC-62): 49.3 nM
CC50 (UACC-62): > 100000 nM
GI50 (M14): 42.4 nM
CC50 (M14): > 100000 nM
GI50 (SF-268): 78.3 nM
CC50 (SF-268): > 100000 nM
GI50 (HL-60(TB)): 31.2 nM
CC50 (HL-60(TB)): > 100000 nM
GI50 (HOP-62): > 100 nM
CC50 (HOP-62): > 100000 nM
GI50 (MDA-MB-435): 20.3 nM
CC50 (MDA-MB-435): > 100000 nM
GI50 (A549/ATCC): 61.8 nM
CC50 (A549/ATCC): > 100000 nM
GI50 (NCI/ADR-RES): 33.3 nM
CC50 (NCI/ADR-RES): > 100000 nM
GI50 (RXF 393): 83.7 nM
CC50 (RXF 393): > 100000 nM
GI50 (NCI-H460): 39.2 nM
CC50 (NCI-H460): > 100000 nM
GI50 (TK-10): > 100 nM
CC50 (TK-10): > 100000 nM
GI50 (786-0): 77.3 nM
CC50 (786-0): > 100000 nM
GI50 (IGROV1): > 100 nM
CC50 (IGROV1): > 100000 nM

COc1cc(/C=C/c2nc3ccccc3s2)cc(OC)c1OC [Formula (I)(d)]
GI50 (HT29): 0.038 nM
CC50 (HT29): > 100000 nM
GI50 (HOP-92): 0.036 nM
CC50 (HOP-92): 77400 nM
GI50 (BT-549): 3.7 nM
CC50 (BT-549): 58800 nM
GI50 (OVCAR-8): 0.39 nM
CC50 (OVCAR-8): > 100000 nM
GI50 (DU-145): 0.27 nM
CC50 (DU-145): > 100000 nM
GI50 (UO-31): 0.37 nM
CC50 (UO-31): > 100000 nM
GI50 (COLO 205): 0.049 nM
CC50 (COLO 205): 24600 nM
GI50 (A498): 0.041 nM
CC50 (A498): 35800 nM
GI50 (SR): 0.036 nM
CC50 (SR): > 100000 nM
GI50 (RPMI-8226): 0.15 nM
CC50 (RPMI-8226): > 100000 nM
GI50 (HCT-116): 0.0072 nM
CC50 (HCT-116): > 100000 nM
GI50 (SK-MEL-28): 0.31 nM
CC50 (SK-MEL-28): 50500 nM
GI50 (T-47D): 0.96 nM
CC50 (T-47D): > 100000 nM
GI50 (OVCAR-3): 0.069 nM
CC50 (OVCAR-3): > 100000 nM
GI50 (UACC-62): 0.05 nM
CC50 (UACC-62): 55900 nM
GI50 (M14): 0.063 nM
CC50 (M14): 48500 nM
GI50 (SF-268): 0.56 nM
CC50 (SF-268): > 100000 nM
GI50 (HL-60(TB)): 0.037 nM
CC50 (HL-60(TB)): > 100000 nM
GI50 (HOP-62): 0.39 nM
CC50 (HOP-62): 81500 nM
GI50 (MDA-MB-435): 0.024 nM
CC50 (MDA-MB-435): 44600 nM
GI50 (A549/ATCC): 0.11 nM
CC50 (A549/ATCC): > 100000 nM
GI50 (NCI/ADR-RES): 0.1 nM
CC50 (NCI/ADR-RES): > 100000 nM
GI50 (RXF 393): 0.14 nM
CC50 (RXF 393): 97600 nM
GI50 (NCI-H460): 0.11 nM
CC50 (NCI-H460): > 100000 nM
GI50 (TK-10): 11.1 nM
CC50 (TK-10): > 100000 nM
GI50 (786-0): 1.32 nM
CC50 (786-0): > 100000 nM
GI50 (IGROV1): 0.24 nM
CC50 (IGROV1): 94200 nM
